Patent US20120093947A1, “METHOD OF TREATING REACTIVE AIRWAY DISEASE” (UNITED STATES DEPARTMENT OF VETERANS AFFAIRS, priority 2009, published 2012)

Experiments:
[1] = target: T1, LPO (Bos taurus, UniProt P80025); test: Oxidation of β2-agonists by LPO/H2O2 (glucose/glucose oxidase), spectrophotometric ΔA315; format: biochemical, bovine; settings: 1 mM glucose/0.2 μg/mL glucose oxidase, pH 7.0, 30 min, % of control; for Amount of metabolite formed ΔA315 (%) Fenoterol: 50 μM fenoterol, 158 nM LPO; for Amount of metabolite formed ΔA315 (%) Salbutamol: 100 μM salbutamol, 216 nM LPO
T1 construct: Lactoperoxidase (LPO) from bovine milk (EC 1.11.1.7); purchased Sigma-Aldrich Co. (St. Louis, Mo.); host or cells: bovine milk (natural source)
Procedure: (§1) Spectrophotometric Measurements. Spectra are measured using an Agilent diode array spectrophotometer model 8453 (Agilent Technologies, Inc., Santa Clara, Calif.). Oxidation of β2-agonists is studied by measuring absorption spectra at designated time points following reaction starts. Samples are prepared in 50 mM acetate buffer (pH 5.0), 50 and 100 mM phosphate buffers (pH 7.0 and 8.0) and 100 mM Tris/HCl (pH 9.19). All buffers contain DTPA (100 and 200 μM) and measurements are performed at an ambient temperature of 20° C. The reaction is started by the addition of a small aliquot of H2O2 (2, 5 or 10 μL), or glucose oxidase (1 μL), if glucose/glucose oxidase was used to generate H2O2, to a sample containing a studied compound, peroxidase and, if required, an inhibiting co-factor. Time course measurements are carried out following changes in absorbance at 315 nm in 15 second intervals versus absorbance at 800 nm, where none of the compounds absorb. The 315 nm wavelength is chosen because β2-agonists' oxidation products absorb intensely near 315 nm, and because it is close to the absorption maximum of tyrosine dimers.
In certain experiments, oxidation of β2-agonists by peroxidases is carried out using H2O2 generated by the reaction of glucose (1 mM) with glucose oxidase (0.2 μg/mL). The rate of H2O2 generation in these systems was estimated based on the rate of oxidation of ABTS (1 mM) to the green ABTS radical cation (ABTS^•+) by HRP, at increasing concentrations of the enzyme. Concentrations of glucose and glucose oxidase are the same as those used in experiments with β2-agonists. The plot of the rate of ABTS^•+ oxidation at 420 nm (determined from the linear portion of kinetic runs) versus [HRP] is a curve, which plateaus above a certain threshold value [HRP]. The mean value of the rate from the plateau region (dA420/dt=ε420×d[ABTS^•+]/dt) is taken as the rate at which all H2O2 produced glucose/glucose was immediately used up by the enzyme to oxidize ABTS. Calculations are performed using […] (ABTS^•+ of 3.6×10^4 M^−1 cm^−1) (Childs et al. (1975) Biochem. […].
H2O2 is generated by 1 mM glucose and 0.2 μg/mL glucose oxidase. Oxidation of 50 μM fenoterol and 100 μM salbutamol is carried out in 0.1 M potassium phosphate buffer (pH 7.0) containing 0.1 mM DTPA in the presence of LPO (158 nM LPO for fenoterol and 216 nM for salbutamol). The extent of inhibition is determined by measuring ΔA315 during 30 minutes of reaction and is expressed as % of control (mean±SE from at least two determinations).

[2] = target: MPO (Homo sapiens, UniProt P05164); test: Oxidation of β2-agonists by MPO/H2O2, spectrophotometric ΔA315; format: biochemical; design: Myeloperoxidase (MPO) from human leucocytes (lyophilized powder); purchased Axxora, LLC (San Diego, Calif.); host or cells: human leucocytes (natural source); settings: 200 mU/mL MPO
Procedure: as §1
The concentration of AscH^− in airway fluid was estimated to be near 100 μM (Id.), so we use concentrations within this physiological range. […] AscH^− affects oxidation of salbutamol and fenoterol similarly, causing delay in the net oxidation of both drugs. A315 increases after a lag period, the duration of which depends on AscH^− concentration. Net oxidation of the drugs occurs only when AscH^− is consumed. […] This is understandable given that the concentration of H2O2 was only 50 μM and the peroxide was used to oxidize both the drugs and AscH^−. […] The proposed mechanisms of inhibition are reactions A and B, shown below, which reveal that recovery of the drug occurs at the expense of AscH^−, which is oxidized to the ascorbate radical (A^•−).
[…]. The extent of oxidation is expressed as ΔA315±SE versus control (in %) during 22 minutes of reaction at 20° C. Values are the mean of at least duplicate determinations.

[3] = target: T1, LPO; test: Nitration of salbutamol by LPO/H2O2/NO2−, A410; format: biochemical, bovine
Procedure: Spectrophotometric Measurements. Spectra are measured using an Agilent diode array spectrophotometer model 8453 (Agilent Technologies, Inc., Santa Clara, Calif.). Nitration of salbutamol is studied by measuring absorption spectra at designated time points following the start of the reaction. Samples are prepared in 100 mM phosphate buffers (pH 7.0). All buffers contained DTPA (100 μM) or are pretreated with Chelex-100 before use, and measurements are performed at ambient temperature of 20° C. Typically, the reaction is started by the addition of a small aliquot of H2O2 or the desired peroxidase. Time course measurements are carried out following changes in absorbance at 410 nm in 30 second intervals versus absorbance at 800 nm, where none of the compounds absorb.
Ascorbate (AscH^−) is an effective natural antioxidant protecting airways from oxidative injury. Cross et al., (1994) Environ. Health Perspect. 102 (suppl. 10):185-191. Its concentration in the respiratory tract lining fluid is estimated to be near 100 μM (Id.). We examine the effect of AscH^− on nitration of 100 μM salbutamol by 67 nM LPO, 4 mM H2O2, and 3.5 mM of NaNO2 by measuring absorption at 410 nm. […] The duration of the lag period depends on AscH^− concentration. […] See, e.g., Reszka et al. (1999) Free Radic. Biol. & Med. 26:669-678.
As noted earlier, methimazole is an antithyroid drug, an effective inhibitor of LPO activity. 100 μM of salbutamol is reacted with 73 nM LPO, 3.5 mM NaNO2, and 4 mM H2O2 at pH buffer 7.0 in the presence of 0, 27, 55, and 109 μM methimazole (shown in FIG. 9, section A, traces a-d, respectively). Traces c and d also indicate by arrow when additional LPO is added to the system. […] In contrast to effects exerted by AscH^− or SCN^−, methimazole-dependent inhibition is permanent and is probably due to inactivation of the enzyme, since a second dose of LPO reactivates the process (FIG. 9, section A, trace c).
Dapsone, an anti-inflammatory and anti-leprotic agent, is a potent inhibitor of LPO and MPO. See, e.g., Kettle et al. (1991) Biochem. Pharmacol. 41(10):1485-1492; Bozeman et al. (1992) Biochem. Pharmacol. 44(2):553-563. 97 μM of salbutamol is reacted with 65 nM LPO, 3.4 mM NaNO2, and 4 mM H2O2 at pH buffer 7.0 in the presence of 0, 2.5, 5, 10, 50, and 100 μM dapsone (shown in FIG. 10, traces a-f, respectively). The arrows in traces d and e of FIG. 10 indicate where additional LPO is added to the system. […] Dapsone at 50 μM inhibited nitration by approximately 86%. Given the high concentrations of NaNO2 and H2O2 used in this system, dapsone appears to be a potent blocker of nitration.
The extent of nitration is expressed as a change in ΔA410 versus control (dapsone omitted) taken as 100% after 10, 30, and 60 minute reactions for LPO, MPO, and EPO nitrating systems, respectively. Results equal the means±SE of at least two measurements. In the LPO system, 100 μM of salbutamol, 3.4 mM of NaNO2, 4 mM of H2O2, and 65 nM of LPO is used. In the MPO system, 50 μM of salbutamol, 5.0 mM of NaNO2, 5 mM of H2O2, and 0.2 U/mL of MPO is used. In the EPO system, 50 μM of salbutamol, 5 mM of NaNO2, 2 mM of H2O2, and 0.075 U/mL of EPO is used. All reactions were carried out in pH 7.0 phosphate buffer containing DMSO (5% v/v). The term “nitrophenols” includes nitrosalbutamol (N-Sal) and salbutamol-derived nitrophenol (N—ArOH).

[4] = inhibitor 1 mM, listed as azide
[5] = inhibitor 0.1 mM, listed as thiocyanate
[6] = inhibitor 0.1 mM, listed as L-methionine

Chain of MPO (P05164 279-745 limits assumed): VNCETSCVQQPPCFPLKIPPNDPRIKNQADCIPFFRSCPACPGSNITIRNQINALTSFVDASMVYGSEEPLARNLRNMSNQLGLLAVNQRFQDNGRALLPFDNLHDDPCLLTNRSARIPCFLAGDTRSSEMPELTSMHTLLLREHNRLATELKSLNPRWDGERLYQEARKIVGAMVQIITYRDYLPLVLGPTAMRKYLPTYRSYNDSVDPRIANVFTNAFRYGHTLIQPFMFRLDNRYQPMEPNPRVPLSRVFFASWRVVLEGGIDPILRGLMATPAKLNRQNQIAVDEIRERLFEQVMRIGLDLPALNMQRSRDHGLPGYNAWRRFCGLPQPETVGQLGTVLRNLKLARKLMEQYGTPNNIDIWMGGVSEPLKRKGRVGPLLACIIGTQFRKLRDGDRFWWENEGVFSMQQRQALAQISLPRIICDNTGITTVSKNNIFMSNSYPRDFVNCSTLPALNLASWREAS
Chain of MPO (P05164 165-273 limits assumed): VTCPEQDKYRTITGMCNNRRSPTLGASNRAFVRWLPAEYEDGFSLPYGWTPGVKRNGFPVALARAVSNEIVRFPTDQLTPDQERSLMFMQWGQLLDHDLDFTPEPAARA

Q: [N-]=[N+]=[N-].[Na+] [NaN3] was tested. Which “Amount of metabolite formed ΔA315 (%) Fenoterol” value ([1]; inhibitor 1 mM) did it give?
A: 45.5 ± 3.9%

Q: What about the “Amount of metabolite formed ΔA315 (%) Fenoterol” value [1, 4] of the same molecule?
A: strongly inhibited

Q: What about the “Amount of metabolite formed ΔA315 (%) Salbutamol” value ([1]; inhibitor 1 mM) of the same molecule?
A: 17.4 ± 7.1%

Q: What about the “Amount of metabolite formed ΔA315 (%) Salbutamol” value [1, 4] of the same molecule?
A: strongly inhibited

Q: And the “ΔA315 (%) Fenoterol, extent of oxidation versus control” value ([2]; 1 mM fenoterol, 50 μM H2O2, pH 7.0, 22 min, 20° C., co-factor 1 mM)?
A: 17.9 ± 4.2%

Q: And the “ΔA315 (%) Salbutamol, extent of oxidation versus control” value ([2]; 1 mM salbutamol, 50 μM H2O2, pH 7.0, 22 min, 20° C., co-factor 1 mM)?
A: 6.6 ± 1.3%

Q: N[C@@H](CCC(=O)N[C@@H](CS)C(=O)NCC(=O)O)C(=O)O [GSH, glutathione] was tested. Which “ΔA315 (%) Fenoterol, extent of oxidation versus control” value ([2]; 100 μM fenoterol, 50 μM H2O2, pH 7.0, 30 min, co-factor 0.1 mM) did it give?
A: 43.3 ± 14.5%

Q: What about the “ΔA315 (%) Salbutamol, extent of oxidation versus control” value ([2]; 100 μM salbutamol, 50 μM H2O2, pH 7.0, 30 min, co-factor 0.1 mM) of the same molecule?
A: 62.0 ± 17.3%

Q: For N#C[S-].[Na+] [NaSCN], which “Amount of metabolite formed ΔA315 (%) Fenoterol” value ([1]; inhibitor 0.1 mM) is on record?
A: 22.8 ± 3.8%

Q: And the “Amount of metabolite formed ΔA315 (%) Fenoterol” value [1, 5]?
A: markedly inhibit

Q: And the “Amount of metabolite formed ΔA315 (%) Salbutamol” value ([1]; inhibitor 0.1 mM)?
A: 5.5 ± 7.3%

Q: And the “Amount of metabolite formed ΔA315 (%) Salbutamol” value [1, 5]?
A: markedly inhibit

Q: What about the “Nitration of salbutamol by LPO/H2O2/NO2− (A410 versus time)” value ([3]; 50 μM NaSCN) of the same molecule?
A: completely prevented

Q: And the “Nitration of salbutamol by LPO/H2O2/NO2− (A410 versus time)” value ([3]; [NaSCN] <50 μM (10, 25 μM))?
A: only transiently

Q: What does the source list for CSCC[C@H](N)C(=O)O [Methionine, L-methionine]?
A: Amount of metabolite formed ΔA315 (%) Fenoterol ([1]; inhibitor 0.1 mM): 103.7 ± 2.0%; Amount of metabolite formed ΔA315 (%) Fenoterol [1, 6]: inactive; Amount of metabolite formed ΔA315 (%) Fenoterol ([1]; inhibitor 2 mM): 95.0 ± 3.5%; Amount of metabolite formed ΔA315 (%) Salbutamol ([1]; inhibitor 0.1 mM): 105.5 ± 16.2%; Amount of metabolite formed ΔA315 (%) Salbutamol [1, 6]: inactive

B1: Catalase: catalase from bovine liver (EC 1.11.1.6; 2,350 U/mg) (protein, UniProt P00432 2-527, looked up)
Catalase: ADNRDPASDQMKHWKEQRAAQKPDVLTTGGGNPVGDKLNSLTVGPRGPLLVQDVVFTDEMAHFDRERIPERVVHAKGAGAFGYFEVTHDITRYSKAKVFEHIGKRTPIAVRFSTVAGESGSADTVRDPRGFAVKFYTEDGNWDLVGNNTPIFFIRDALLFPSFIHSQKRNPQTHLKDPDMVWDFWSLRPESLHQVSFLFSDRGIPDGHRHMNGYGSHTFKLVNANGEAVYCKFHYKTDQGIKNLSVEDAARLAHEDPDYGLRDLFNAIATGNYPSWTLYIQVMTFSEAEIFPFNPFDLTKVWPHGDYPLIPVGKLVLNRNPVNYFAEVEQLAFDPSNMPPGIEPSPDKMLQGRLFAYPDTHRHRLGPNYLQIPVNCPYRARVANYQRDGPMCMMDNQGGAPNYYPNSFSAPEHQPSALEHRTHFSGDVQRFNSANDDNVTQVRTFYLKVLNEEQRKRLCENIAGHLKDAQLFIQKKAVKNFSDVHPEYGSRIQALLDKYNEEKPKNAVHTYVQHGSHLSAREKANL
Q: Which results are given for B1?
A: ΔA315 (%) Fenoterol, extent of oxidation versus control ([2]; 1 mM fenoterol, 50 μM H2O2, pH 7.0, 22 min, 20° C., co-factor 235 U/mL): 0.0%; ΔA315 (%) Salbutamol, extent of oxidation versus control ([2]; 1 mM salbutamol, 50 μM H2O2, pH 7.0, 22 min, 20° C., co-factor 235 U/mL): 0.0%
